Data as given in ChEMBL document CHEMBL3286288, “Diterpenes from the endangered goldenrod Solidago shortii” (2014).
Active and inactive are the calls of the source. The rule behind the calls is not given here.

Experiments:
[1] = test system: NCI-H460; assay: Growth inhibition of human NCI-H460 cells after 72 hrs at 10 uM; assay type: functional, cell-based
[2] = test system: Staphylococcus aureus; assay: Antibacterial activity against methicillin-resistant Staphylococcus aureus 108 assessed as growth inhibition up to 16 ug/ml after 24 hrs by broth microdilution method; assay type: functional, organism-based
[3] = test system: Staphylococcus aureus; assay: Antibacterial activity against methicillin-susceptible Staphylococcus aureus ATCC 25923 assessed as growth inhibition at 8 ug/ml after 24 hrs by broth microdilution method relative to control; assay type: functional; conditions: ATCC 25923, 24 h, read-out: GI
[4] = test system: Staphylococcus aureus; assay: Antibacterial activity against methicillin-susceptible Staphylococcus aureus ATCC 25923 assessed as growth inhibition at 64 ug/ml after 24 hrs by broth microdilution method; assay type: functional, organism-based

| SMILES | growth inhibition (GI) [1] | growth inhibition (GI) [2] | inhibition of growth at 8 µg/mL [3] [%] | growth inhibition (GI) [4] |
| --- | --- | --- | --- | --- |
| C/C=C(/C)C(=O)O[C@H]1C[C@]2(C)[C@@H](CC[C@@H](NC(C)=O)[C@]2(C)O)[C@](C)(CCC2=CC(=O)OC2)[C@@H]1C | inactive | inactive |  |  |
| C[C@@H]1CC[C@]2(O)[C@H](C[C@H](O)C2(C)C)C(=O)[C@]1(C)CCC1=CC(=O)OC1 | inactive | inactive | 56 |  |
| C/C=C(/C)C(=O)O[C@H]1C[C@]2(C)[C@@H](CC[C@@H](O)[C@]2(C)O)[C@](C)(CCC2=CC(=O)OC2)[C@@H]1C | inactive | inactive |  |  |
| C/C=C(/C)C(=O)O[C@H]1C[C@]2(C)[C@@H](CC[C@@H](OC(=O)C(F)(F)F)[C@]2(C)O)[C@](C)(CCC2=CC(=O)OC2)[C@@H]1C | inactive | inactive |  |  |
| C[C@@H]1C[C@H]2C(=O)C(C)(C)[C@@H](O)CC[C@]2(O)[C@]1(C)CCC1=CC(=O)OC1 | inactive | inactive | 66 |  |
| C/C=C(/C)C(=O)O[C@H]1C[C@]2(C)[C@@H](CC[C@H]3O[C@]32C)[C@](C)(CCC2=CC(=O)OC2)[C@@H]1C | inactive | inactive |  | inactive |
